Key:
Experiment in all cases: relative viability (nuclei count vs DMSO), 5 days (fraction); higher = more cells survive
ALW-II-49-7 + Pemetrexed = compound: Cc1ccc(C(=O)Nc2cccc(C(F)(F)F)c2)cc1Nc1cncc(C(N)=O)c1 [ALW-II-49-7] + Nc1nc2[nH]cc(CCc3ccc(C(=O)N[C@@H](CCC(=O)O)C(=O)O)cc3)c2c(=O)[nH]1 [Pemetrexed] (partner 0.2 µM)
Procedure, shortened: (§1)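 Relative viability equals treated-well nuclei counts divided by vehicle-well nuclei counts. Counts came from 4× images of lung cancer cell lines grown in 1536-well plates for 5 days after pin-tool dosing on the day after seeding. Dosing used one drug alone or a fixed anchor-drug dose plus five library-drug doses (not always all listed) in √10 steps, and values are medians of duplicate plates.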

XMD13-2 + Vorinostat = compound: C1CC1C(=O)NC2=NNC3=C2C=CC(=C3)C4=CC(=CC=C4)C(=O)NC5CC5 [XMD13-2] + O=C(CCCCCCC(=O)Nc1ccccc1)NO [Vorinostat] (partner 1 µM)
Procedure, shortened: as §1

ALW-II-49-7 + Luminespib = compound: Cc1ccc(C(=O)Nc2cccc(C(F)(F)F)c2)cc1Nc1cncc(C(N)=O)c1 [ALW-II-49-7] + CCNC(=O)c1noc(-c2cc(C(C)C)c(O)cc2O)c1-c1ccc(CN2CCOCC2)cc1 [Luminespib] (partner 0.01 µM)
Procedure, shortened: as §1

XMD13-2 + Dasatinib = compound: C1CC1C(=O)NC2=NNC3=C2C=CC(=C3)C4=CC(=CC=C4)C(=O)NC5CC5 [XMD13-2] + Cc1nc(Nc2ncc(C(=O)Nc3c(C)cccc3Cl)s2)cc(N2CCN(CCO)CC2)n1 [Dasatinib] (partner 0.075 µM)
Procedure, shortened: as §1

Row | Cell Line | relative viability (ALW-II-49-7 + Pemetrexed; first compound 0.08 µM) | relative viability (ALW-II-49-7 + Pemetrexed; first compound 0.253 µM) | relative viability (ALW-II-49-7 + Pemetrexed; first compound 0.8 µM) | relative viability (ALW-II-49-7 + Pemetrexed; first compound 2.53 µM) | relative viability (ALW-II-49-7 + Pemetrexed; first compound 8 µM) | relative viability (XMD13-2 + Vorinostat; first compound 0.05 µM) | relative viability (XMD13-2 + Vorinostat; first compound 0.1581 µM) | relative viability (XMD13-2 + Vorinostat; first compound 0.5 µM) | relative viability (XMD13-2 + Vorinostat; first compound 5 µM) | relative viability (ALW-II-49-7 + Luminespib; first compound 0.08 µM) | relative viability (ALW-II-49-7 + Luminespib; first compound 0.253 µM) | relative viability (ALW-II-49-7 + Luminespib; first compound 0.8 µM) | relative viability (ALW-II-49-7 + Luminespib; first compound 2.53 µM) | relative viability (ALW-II-49-7 + Luminespib; first compound 8 µM) | relative viability (XMD13-2 + Dasatinib; first compound 0.05 µM) | relative viability (XMD13-2 + Dasatinib; first compound 0.1581 µM) | relative viability (XMD13-2 + Dasatinib; first compound 0.5 µM) | relative viability (XMD13-2 + Dasatinib; first compound 1.581 µM) | relative viability (XMD13-2 + Dasatinib; first compound 5 µM) | relative viability (XMD13-2 + Vorinostat; first compound 1.581 µM)
1 | NCI-H2405 | 1.14 | 1.12 | 0.898 | 1.06 | 0.791 | 1.08 | 0.934 | 1.04 | 0.965 | 0.788 | 0.598 | 0.646 | 0.474 | 0.459 | 0.211 | 0.259 | 0.239 | 0.171 | 0.226 | –
2 | NCI-H3122 | 0.201 | 0.174 | 0.207 | 0.216 | 0.186 | 1.04 | 0.987 | 1.1 | 0.941 | 0.0922 | 0.0773 | 0.124 | 0.102 | 0.195 | 1.01 | 0.863 | 0.843 | 0.723 | 0.77 | 0.995
3 | PC-3 [JPC-3] | 0.976 | 0.909 | 0.843 | 1.27 | 0.947 | 0.804 | 0.857 | 0.916 | 0.734 | 0.669 | 0.698 | 0.636 | 0.548 | 0.772 | 1.22 | 0.991 | 1 | 0.959 | 1.11 | –
4 | PC-14 | 0.15 | 0.165 | 0.13 | 0.138 | 0.113 | 0.951 | 0.934 | 0.749 | 0.975 | 0.191 | 0.161 | 0.119 | – | 0.125 | 0.279 | 0.296 | 0.335 | 0.242 | 0.317 | 0.825
5 | RERF-LC-KJ | 0.475 | 0.518 | 0.472 | 0.439 | 0.478 | 0.783 | 0.653 | 0.686 | 0.806 | 1.56 | 1.18 | 1.68 | 1.39 | 1.15 | 0.983 | 0.918 | 0.801 | 0.72 | 0.694 | 0.616

Source: the supplement of paper PMC10307832
